The record followed here is ChEMBL document CHEMBL1201862, “PubChem BioAssay data set” (2004).

Test in all cases: NCI-60 cell line screen, 48 h
For assay [1], the system named is SF-295.
In assay [2] the test system is M14.
In assay [3] the test system is SK-MEL-5.
For assay [4], the system named is OVCAR-8.
The test system of assay [5] is HCC 2998.
For assay [6], the system named is A549.
The subject of assay [7] is SK-MEL-28.
In assay [8] the test system is HCT-15.
Assay [9] deals with OVCAR-4.
Assay [10] relates to HOP-92.
The subject of assay [11] is OVCAR-3.
Assay [12] concerns SF-539.
For assay [13], the system named is SN12C.
In assay [14] the test system is MOLT-4.
For assay [15], the system named is RXF 393.
The test system of assay [16] is SNB-19.
Assay [17] relates to Malme-3M.
In assay [18] the test system is MDA-MB-435.
For assay [19], the system named is NCI/ADR-RES.

Each structure is given as a SMILES string.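 Assay format: 96-well plates, 48-hour exposure. GI50: concentration for 50% inhibition of growth.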 Activity calls are given as the source filed them. No stated cut-off is given here; in the data, active = GI50 up to about 1.1 µM and inactive = higher.

In the case of `NC(=S)Nc1nnc(-c2ccc(-c3nnc(NC(N)=S)o3)cc2)o1`, the GI50 in assay [1], in assay [2], in [3], in assay [4], in assay [5] and in assay [6] was > 100 µM (inactive) each time. Further, the GI50 in assay [7] was > 100 µM (inactive); in [8] it was more than 100 µM; in assay [9], > 100 µM (inactive); in [10], > 100 µM (inactive); in [11] it was > 100 µM (inactive); in assay [12], > 100 µM (inactive). In addition, the GI50 in assay [13], in [14], in assay [15], in assay [16] and in [17] was > 100 µM (inactive) throughout.

For the compound `CC(OC1CC(=O)CC2C(=O)C=CC(=O)C12)c1ccccc1` (centres undefined), the GI50 was 16.6 µM (inactive) in assay [1]; 18.7 µM (inactive) in assay [2]; 18.8 µM (inactive) in assay [3]; 15.3 µM (inactive) in [4]; 16.1 µM (inactive) in assay [5]; 19.1 µM (inactive) in assay [6]. The GI50 in assay [7] was 20.8 µM (inactive); in assay [8], 17.1 µM; in assay [9], 18.3 µM (inactive); in assay [10], 1.42 µM (inactive); in assay [11], 19.2 µM (inactive); in [12], 19.8 µM (inactive). Besides, the GI50 in assay [13] is 19 µM (inactive); in assay [14], 4.97 µM (inactive); in assay [15], 18.9 µM (inactive); in [16] it was 28.4 µM (inactive); in assay [17], 20.4 µM (inactive).

In the case of `COC(=O)CCC1(NS(=O)(=O)c2ccc(C)cc2)CCC(C(C)(C)C)CC1` (centres undefined), the GI50 was 11.8 µM (inactive) in [1]; 12.7 µM (inactive) in assay [2]; 5.62 µM (inactive) in assay [3]; 14.5 µM (inactive) in [4]; 14.6 µM (inactive) in assay [5]; 13.6 µM (inactive) in assay [6]. Moreover, the GI50 in assay [7] is 11.6 µM (inactive); in assay [8], more than 10 µM; in assay [9] it was 11.2 µM (inactive); in [10], 7.06 µM (inactive); in assay [11] it was 10.3 µM (inactive); in assay [12], 13.3 µM (inactive). Moreover, the GI50 in [13] is 13.7 µM (inactive); in [14] it was 6.15 µM (inactive); in [15] it was > 10 µM (inactive); in assay [16], 12.2 µM (inactive); in assay [17], 19.3 µM (inactive).

As for `Sc1nnc(COc2ccc(Cl)cc2Cl)[nH]1`, the GI50 in [1], in assay [2], in assay [3], in assay [4], in [5] and in assay [6] was > 100 µM (inactive) each time. The GI50 in [7] is > 100 µM (inactive); in assay [8], more than 100 µM; in assay [9], > 100 µM (inactive); in assay [10] it was > 100 µM (inactive); in assay [11], > 100 µM (inactive); in assay [12] it was > 100 µM (inactive). Moreover, the GI50 in assay [13], in [14], in assay [15], in assay [16] and in [17] was > 100 µM (inactive) each time.

As for `CN(C)c1ccc(/C=N/c2nc3cc4sc(/N=C/c5ccc(N(C)C)cc5)nc4cc3s2)cc1`, the GI50 was > 100 µM (inactive) in [1]; > 100 µM (inactive) in assay [2]; > 100 µM (inactive) in [3]; 33.7 µM (inactive) in [18]; 76 µM (inactive) in [4]; > 100 µM (inactive) in assay [19]. The GI50 is 12.8 µM (inactive) in [6]; > 100 µM (inactive) in assay [7]; more than 100 µM in [8]; > 100 µM (inactive) in assay [9]; > 100 µM (inactive) in [10]; 36.9 µM (inactive) in assay [11]. For the same compound, the GI50 in assay [12] is > 100 µM (inactive); in assay [13], 83.9 µM (inactive); in [14], 12.9 µM (inactive); in assay [16] it was 77.6 µM (inactive); in assay [17], > 100 µM (inactive).

Consider `O=C(CCN1CCN(c2cccc(Cl)c2)CC1)N1CCc2c([nH]c3ccccc23)C1c1cccnc1` (centres undefined), for which the GI50 is 4.72 µM (inactive) in assay [1]; 3.37 µM (inactive) in assay [2]; 6.25 µM (inactive) in assay [3]; 6.55 µM (inactive) in [4]; 1.91 µM (inactive) in assay [5]; 6.28 µM (inactive) in assay [6]. The GI50 is 11.9 µM (inactive) in [7]; 3.4 µM in assay [8]; 2.58 µM (inactive) in [9]; 1.9 µM (inactive) in [10]; 2.47 µM (inactive) in [11]; 13.7 µM (inactive) in assay [12]. Moreover, the GI50 in [13] is 6.62 µM (inactive); in [14], 2.95 µM (inactive); in assay [15], 7.4 µM (inactive); in assay [16], 6.82 µM (inactive); in assay [17], 7.71 µM (inactive).

For the compound `CCCCCCC(C)CC(CCCCCC)NCCOC(=O)c1ccc([N+](=O)[O-])cc1` (centres undefined), the GI50 in assay [1] is 11.7 µM (inactive); in assay [3], 14.3 µM (inactive); in assay [4], 10.2 µM (inactive); in assay [19] it was 21.3 µM (inactive); in [5], 3.72 µM (inactive); in assay [6] it was 15.6 µM (inactive). Moreover, the GI50 in assay [7] is 12.6 µM (inactive); in assay [8], 14.3 µM; in assay [9], 11.7 µM (inactive); in assay [10], 10.1 µM (inactive); in [12], 15.8 µM (inactive); in assay [13], 12.4 µM (inactive). Moreover, the GI50 in assay [16] is 15.9 µM (inactive); in [17], 13.7 µM (inactive).

For `Cc1ccc(S(=O)(=O)OC2CSSCC2OS(=O)(=O)c2ccc(C)cc2)cc1` (centres undefined), the GI50 in assay [1] was 16.2 µM (inactive); in assay [2], 12.6 µM (inactive); in assay [3], 15.7 µM (inactive); in [4] it was 13.3 µM (inactive); in [5], 20.9 µM (inactive); in assay [6], 18 µM (inactive). Besides, the GI50 in [7] is 16.6 µM (inactive); in [8], 10.2 µM; in assay [9], 11.2 µM (inactive); in assay [10] it was 11.4 µM (inactive); in assay [11], 13.3 µM (inactive); in assay [12], 10.5 µM (inactive). The GI50 in assay [13] is 11.3 µM (inactive); in [14] it was 2.59 µM (inactive); in [15], 20.9 µM (inactive); in assay [16], 17.3 µM (inactive); in [17], 19.2 µM (inactive).

On to `CCCCCCCC(=O)OC[C@H](C[As](=O)(O)O)OC(=O)CCCCCCC`, for which the GI50 is 14.4 µM (inactive) in assay [1]; 12.3 µM (inactive) in [2]; 13.6 µM (inactive) in assay [3]; 13.4 µM (inactive) in assay [4]; 14.6 µM (inactive) in assay [5]; 2.86 µM (inactive) in assay [6]. For the same compound, the GI50 is 13.3 µM (inactive) in assay [7]; 10.5 µM in assay [8]; 12.2 µM (inactive) in assay [9]; 14.4 µM (inactive) in assay [10]; 5.13 µM (inactive) in assay [12]; 10.1 µM (inactive) in [13]. Also, the GI50 in assay [14] is 2.15 µM (inactive); in [15], 3.92 µM (inactive); in [16] it was 14.3 µM (inactive); in assay [17] it was 12.7 µM (inactive).

Consider `C#CC1(O)CC(c2ccccc2)N(C)C(c2ccccc2)C1` (centres undefined), for which the GI50 in assay [1], in assay [2], in assay [3], in assay [4], in assay [5] and in assay [6] was > 100 µM (inactive) throughout. Besides, the GI50 in [7] was > 100 µM (inactive); in assay [8], more than 100 µM; in assay [9] it was > 100 µM (inactive); in assay [10], > 100 µM (inactive); in assay [11] it was > 100 µM (inactive); in [12], > 100 µM (inactive). In addition, the GI50 in assay [13], in assay [14], in assay [15], in assay [16] and in assay [17] was > 100 µM (inactive) throughout.

In the case of `COc1cccc(NC(=O)/C(CS(=O)(=O)CCC(C(C)=O)C(C)=O)=N/NC(C)(C)C)c1`, the GI50 in [2], in assay [3], in assay [4], in assay [5], in assay [6] and in [7] was > 100 µM (inactive) throughout. The GI50 in assay [8] is more than 100 µM; in [9], > 100 µM (inactive); in assay [10] it was > 100 µM (inactive); in assay [11] it was > 100 µM (inactive); in assay [12], > 100 µM (inactive); in assay [13], > 100 µM (inactive). Besides, the GI50 in [14], in assay [15], in [16] and in assay [17] was > 100 µM (inactive) in each case.

With `COc1ccc(OC)c(/C=C(/C#N)c2ccccc2)c1`, the GI50 in assay [1] is 39.4 µM (inactive); in assay [2], 33.3 µM (inactive); in assay [3], 13.2 µM (inactive); in assay [4], 37.2 µM (inactive); in assay [5] it was > 10 µM (inactive); in assay [6] it was 13.2 µM (inactive). Also, the GI50 was 23.4 µM (inactive) in assay [7]; 18.9 µM in [8]; 15.9 µM (inactive) in assay [9]; 17.7 µM (inactive) in assay [10]; 28.2 µM (inactive) in assay [11]; 28.2 µM (inactive) in [12]. Besides, the GI50 in [13] was 32.6 µM (inactive); in assay [14] it was 12.9 µM (inactive); in assay [15] it was 10.2 µM (inactive); in assay [16], 52 µM (inactive); in assay [17], 35.6 µM (inactive).
